{"source": "patent US11554182B2", "about": "“Macrocyclic complexes of alpha-emitting radionuclides and their use in targeted radiotherapy of cancer” (CORNELL UNIVERSITY, priority 2017, dated 2023)", "test": "In vivo biodistribution of ^225Ac complexes after intravenous injection", "set-up": "species or system C57BL/6 mice", "experimental": "In Vivo Biodistribution of ^225Ac Complexes of Macropa and DOTA. All experiments were approved by the Institutional Animal Care Committee (IACC) of the University of British Columbia and were performed in accordance with the Canadian Council on Animal Care Guidelines. A total of 9 female C57BL/6 mice (6-8 weeks old, 20-25 g) were used for the biodistribution study of each radiometal complex, n=3 for each time point.\nMacropa (100 μL of a 1 mg/mL solution in NH4OAc) was diluted with 387 μL of NH4OAc (1 M, pH 7), and an aliquot (203 μL) of ^225Ac(NO3)3 (˜157 kBq) was then added; the pH of this solution was adjusted to 6.5-7 by the addition of 1 M NaOH (210 μL, trace metal grade). After 5 min at ambient temperature, the reaction solution was analyzed by TLC (0.4 M pH 4 sodium citrate as the eluent), which confirmed >95% radiochemical yield. The reaction was allowed to proceed overnight, and the radiochemical yield was again confirmed to be >95% the following morning. At this time, mice were anesthetized by 2% isoflurane, and approximately 100 μL (10-15 kBq) of the [^225Ac(macropa)]^+ complex were injected into the tail vein of each mouse. After injection, mice were allowed to recover and roam freely in their cages, and were euthanized by CO2 inhalation at 15 min, 1 h, or 5 h (n=3 at each time point) post-injection. Blood was collected by cardiac puncture and placed into an appropriate test tube for scintillation counting. Tissues collected included heart, liver, kidneys, lungs, small intestine, large intestine, brain, bladder, spleen, stomach, pancreas, bone, thyroid, tail, urine, and feces. Tissues were weighed and then counted with a calibrated gamma counter (Packard, Cobra II model 5002) using three energy windows: 60-120 keV (window A), 180-260 keV (window B), and 400-480 keV (window C). Counting was performed both immediately after sacrifice and after 7 days; counts were decay corrected from the time of injection and then converted to the percentage of injected dose (% ID) per gram of tissue (% ID/g). No differences were noted between the data; therefore, the biodistributions are reported using the data acquired immediately using window A.\nThe biodistribution studies of [^225Ac(DOTA)]^− and ^225Ac(NO3)3 were carried out as described above for [^225Ac(macropa)]^+, with the following modifications. [^225Ac(DOTA)]^− was prepared by adding ^225Ac(NO3)3 (338 μL, 1.1 MBq) to a solution of DOTA (100 μg, 20 mg/mL in H2O) in NH4OAc (467 μL, 0.15 M, pH 7). The pH of the solution was adjusted to 7 using NH4OAc (150 μL, 1 M, pH 7) and the solution was heated at 85° C. for 45 min. RCY>99% was confirmed by TLC as described above. [^225Ac(DOTA)]^− was diluted with saline to a final concentration of 0.05 MBq/100 μL, and 100 μL were injected into each mouse. ^225Ac(NO3)3 (˜58 μL, 0.4 MBq) was diluted and injected in the same manner as [^225Ac(DOTA)]^−. One mouse that was to be euthanized at the 5 h time point in the [^225Ac(DOTA)]^− study died shortly after injection. In the same manner, one mouse that was to be euthanized at the 1 h time point in the ^225Ac(NO3)3 study died.\nThe in vivo stability [^225Ac(macropa)]^+ was examined by comparing its biodistribution to those of ^225Ac(NO3)3 and [^225Ac(DOTA)]^−. C57BL/6 mice were injected via tail vein with 10-50 kBq of each radiometal complex and were sacrificed after 15 min, 1 h, or 5 h. The amount of ^225Ac retained in each organ was quantified by gamma counting and reported as the percent of injected dose per gram of tissue (% ID/g). The results of these studies are compiled in Tables 1-3. Inadequate stability of an ^225Ac complex leading to the loss of radioisotope in vivo is manifested by the accumulation of ^225Ac in the liver, spleen, and bone of mice.^[11,12,32] […] The biodistribution profile of [^225Ac(macropa)]^+ (FIG. 3B) differs markedly from that of ^225Ac(NO3)3. […]", "key": {"[1]": {"conditions": "1 h after i.v. injection, energy window B (180-260 keV)"}, "[2]": {"conditions": "1 h after i.v. injection, energy window C (400-480 keV)"}, "[3]": {"conditions": "5 h after i.v. injection, energy window A (60-120 keV)"}, "[4]": {"conditions": "5 h after i.v. injection, energy window B (180-260 keV)"}}}
{"smiles": "O=C([O-])CN1CCN(CC(=O)[O-])CCN(CC(=O)[O-])CCN(CC(=O)[O-])CC1.[225Ac+3]", "note": "[[^225Ac(DOTA)]^−]", "values": [{"measurement": "% ID/g in bladder", "setting": "[1]", "result": 4.7141, "unit": "% ID/g"}, {"measurement": "% ID/g in blood", "setting": "[1]", "result": 0.1127, "unit": "% ID/g"}, {"measurement": "% ID/g in bone (femur + joint)", "setting": "[1]", "result": 0.4126, "unit": "% ID/g"}, {"measurement": "% ID/g in brain", "setting": "[1]", "result": 0.0248, "unit": "% ID/g"}, {"measurement": "% ID/g in feces", "setting": "[1]", "result": 0.2349, "unit": "% ID/g"}, {"measurement": "% ID/g in heart", "setting": "[1]", "result": 0.1378, "unit": "% ID/g"}, {"measurement": "% ID/g in kidneys", "setting": "[1]", "result": 1.2560, "unit": "% ID/g"}, {"measurement": "% ID/g in large intestines", "setting": "[1]", "result": 0.0813, "unit": "% ID/g"}, {"measurement": "% ID/g in liver", "setting": "[1]", "result": 0.2672, "unit": "% ID/g"}, {"measurement": "% ID/g in lungs", "setting": "[1]", "result": 0.1946, "unit": "% ID/g"}, {"measurement": "% ID/g in pancreas", "setting": "[1]", "result": 0.0746, "unit": "% ID/g"}, {"measurement": "% ID/g in small intestines", "setting": "[1]", "result": 1.8809, "unit": "% ID/g"}, {"measurement": "% ID/g in spleen", "setting": "[1]", "result": 0.0825, "unit": "% ID/g"}, {"measurement": "% ID/g in stomach", "setting": "[1]", "result": 0.1379, "unit": "% ID/g"}, {"measurement": "% ID/g in tail", "setting": "[1]", "result": 0.8973, "unit": "% ID/g"}, {"measurement": "% ID/g in thyroids", "setting": "[1]", "result": 2.6514, "unit": "% ID/g"}, {"measurement": "% ID/g in urine", "setting": "[1]", "result": 159.1628, "unit": "% ID/g"}, {"measurement": "% ID/g in bladder", "setting": "[2]", "result": 6.9149, "unit": "% ID/g"}, {"measurement": "% ID/g in blood", "setting": "[2]", "result": 0.1102, "unit": "% ID/g"}, {"measurement": "% ID/g in bone (femur + joint)", "setting": "[2]", "result": 0.5654, "unit": "% ID/g"}, {"measurement": "% ID/g in brain", "setting": "[2]", "result": 0.0380, "unit": "% ID/g"}, {"measurement": "% ID/g in feces", "setting": "[2]", "result": 0.4091, "unit": "% ID/g"}, {"measurement": "% ID/g in heart", "setting": "[2]", "result": 0.2857, "unit": "% ID/g"}, {"measurement": "% ID/g in kidneys", "setting": "[2]", "result": 1.4787, "unit": "% ID/g"}, {"measurement": "% ID/g in large intestines", "setting": "[2]", "result": 0.1381, "unit": "% ID/g"}, {"measurement": "% ID/g in liver", "setting": "[2]", "result": 0.2841, "unit": "% ID/g"}, {"measurement": "% ID/g in lungs", "setting": "[2]", "result": 0.2551, "unit": "% ID/g"}, {"measurement": "% ID/g in pancreas", "setting": "[2]", "result": 0.1730, "unit": "% ID/g"}, {"measurement": "% ID/g in small intestines", "setting": "[2]", "result": 2.0201, "unit": "% ID/g"}, {"measurement": "% ID/g in spleen", "setting": "[2]", "result": 0.2228, "unit": "% ID/g"}, {"measurement": "% ID/g in stomach", "setting": "[2]", "result": 0.1720, "unit": "% ID/g"}, {"measurement": "% ID/g in tail", "setting": "[2]", "result": 1.0280, "unit": "% ID/g"}, {"measurement": "% ID/g in thyroids", "setting": "[2]", "result": 3.5247, "unit": "% ID/g"}, {"measurement": "% ID/g in urine", "setting": "[2]", "result": 177.6788, "unit": "% ID/g"}, {"measurement": "% ID/g in bladder", "setting": "[3]", "result": 0.3551, "unit": "% ID/g"}, {"measurement": "% ID/g in blood", "setting": "[3]", "result": 0.0140, "unit": "% ID/g"}, {"measurement": "% ID/g in bone (femur + joint)", "setting": "[3]", "result": 0.2063, "unit": "% ID/g"}, {"measurement": "% ID/g in brain", "setting": "[3]", "result": 0.0213, "unit": "% ID/g"}, {"measurement": "% ID/g in feces", "setting": "[3]", "result": 5.5318, "unit": "% ID/g"}, {"measurement": "% ID/g in heart", "setting": "[3]", "result": 0.0664, "unit": "% ID/g"}, {"measurement": "% ID/g in kidneys", "setting": "[3]", "result": 0.6172, "unit": "% ID/g"}, {"measurement": "% ID/g in large intestines", "setting": "[3]", "result": 0.2026, "unit": "% ID/g"}, {"measurement": "% ID/g in liver", "setting": "[3]", "result": 0.1010, "unit": "% ID/g"}, {"measurement": "% ID/g in lungs", "setting": "[3]", "result": 0.0390, "unit": "% ID/g"}, {"measurement": "% ID/g in pancreas", "setting": "[3]", "result": 0.0677, "unit": "% ID/g"}, {"measurement": "% ID/g in small intestines", "setting": "[3]", "result": 0.0967, "unit": "% ID/g"}, {"measurement": "% ID/g in spleen", "setting": "[3]", "result": 0.1380, "unit": "% ID/g"}, {"measurement": "% ID/g in stomach", "setting": "[3]", "result": 0.0852, "unit": "% ID/g"}, {"measurement": "% ID/g in tail", "setting": "[3]", "result": 0.3057, "unit": "% ID/g"}, {"measurement": "% ID/g in thyroids", "setting": "[3]", "result": 3.6425, "unit": "% ID/g"}, {"measurement": "% ID/g in urine", "setting": "[3]", "result": 1.1612, "unit": "% ID/g"}, {"measurement": "% ID/g in bladder", "setting": "[4]", "result": 0.7521, "unit": "% ID/g"}, {"measurement": "% ID/g in blood", "setting": "[4]", "result": 0.0292, "unit": "% ID/g"}, {"measurement": "% ID/g in bone (femur + joint)", "setting": "[4]", "result": 0.1478, "unit": "% ID/g"}, {"measurement": "% ID/g in brain", "setting": "[4]", "result": 0.0513, "unit": "% ID/g"}, {"measurement": "% ID/g in feces", "setting": "[4]", "result": 3.3534, "unit": "% ID/g"}, {"measurement": "% ID/g in heart", "setting": "[4]", "result": 0.0879, "unit": "% ID/g"}, {"measurement": "% ID/g in kidneys", "setting": "[4]", "result": 0.6718, "unit": "% ID/g"}, {"measurement": "% ID/g in large intestines", "setting": "[4]", "result": 0.2527, "unit": "% ID/g"}, {"measurement": "% ID/g in liver", "setting": "[4]", "result": 0.2712, "unit": "% ID/g"}, {"measurement": "% ID/g in lungs", "setting": "[4]", "result": 0.1289, "unit": "% ID/g"}, {"measurement": "% ID/g in pancreas", "setting": "[4]", "result": 0.1266, "unit": "% ID/g"}, {"measurement": "% ID/g in small intestines", "setting": "[4]", "result": 0.2065, "unit": "% ID/g"}, {"measurement": "% ID/g in spleen", "setting": "[4]", "result": 0.0834, "unit": "% ID/g"}, {"measurement": "% ID/g in stomach", "setting": "[4]", "result": 0.1789, "unit": "% ID/g"}, {"measurement": "% ID/g in tail", "setting": "[4]", "result": 0.1634, "unit": "% ID/g"}, {"measurement": "% ID/g in thyroids", "setting": "[4]", "result": 16.2357, "unit": "% ID/g"}, {"measurement": "% ID/g in urine", "setting": "[4]", "result": 3.6967, "unit": "% ID/g"}]}
